According to US8987195B2 (priority 2012, dated 2015):
Read-outs that look alike come from different tables or passages of the source.

Key:
[1] = tested on: HCV genotype 1b replicon; experiment: HCV replicon assay, genotype 1b replicon EC50; assay type: cell-based, Hepatitis C virus; conditions: Hepatitis C virus, genotype 1b replicon, read-out: EC50 [gt-1b]
Procedure, shortened: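 Stable neomycin phosphotransferase-encoding replicon cell lines, kept under G418 selection beforehand, were plated with a compound dilution series without G418 and incubated 24-48 hours. Replicon RNA was then quantified, or luciferase activity read. EC50 was calculated as percent of DMSO control by four-parameter fit.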

[2] = molecular target: HCV NS3/4A protease genotype 1b (Hepatitis C virus genotype 1b, UniProt P26663); experiment: HCV NS3/4A protease time-resolved fluorescence (TRF) assay, Ki against genotype 1b; assay type: biochemical; conditions: IC50 [gt-1b] (nM), NS3/4A genotype 1b, enzyme 0.2 nM
Procedure, shortened: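 NS3/4A enzyme was preincubated 30 min with inhibitor in 50 mM HEPES pH 7.5, 150 mM NaCl, 15% glycerol, 0.15% Triton X-100, 10 mM DTT, 0.1% PEG 8000; 25 nM europium TRF peptide substrate added, 2.5 h at room temperature. Enzyme: 0.2 nM (1b), 0.4 nM (A156T), 0.025 nM (3a). Ki from IC50 via Cheng-Prusoff.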

SMILES	EC50 [1] [nM]	IC50 [2] [nM]	EC50 ([1]; K+ salt) [nM]	IC50 ([2]; K+ salt) [nM]
Cc1nc2ccc(Cl)cc2c2c1O[C@]1(CC2)C[C@H]2C(=O)N[C@]3(C(=O)NS(=O)(=O)C4(C)CC4)C[C@H]3/C=C\CCCCC[C@H](NC(=O)OCC3CCC3)C(=O)N2C1 [Example 221, cyclobutylmethyl [(2R,6S,12Z,13aS,14aR,16aS)-9′-chloro-5′-methyl-14a-{[(1-methylcyclopropyl)sulfonyl]carbamoyl}-5,16-dioxo-1,1′,2′,5,6,7,8,9,10,11,13a,14,14a,15,16,16a-hexadecahydrospiro[cyclopropa[e]pyrrolo[1,2-a][1,4]diazacyclopentadecine-2,3′-pyrano[2,3-c]quinolin]-6-yl]carbamate]	11.6	0.008	–	–
Cc1nc2ccc(Cl)cc2c2c1O[C@]1(CC2)C[C@H]2C(=O)N[C@]3(C(=O)NS(=O)(=O)C4(C)CC4)C[C@H]3/C=C\CCCCC[C@H](NC(=O)OCC3CC3)C(=O)N2C1 [Example 222, cyclopropylmethyl [(2R,6S,12Z,13aS,14aR,16aS)-9′-chloro-5′-methyl-14a-{[(1-methylcyclopropyl)sulfonyl]carbamoyl}-5,16-dioxo-1,1′,2′,5,6,7,8,9,10,11,13a,14,14a,15,16,16a-hexadecahydrospiro[cyclopropa[e]pyrrolo[1,2-a][1,4]diazacyclopentadecine-2,3′-pyrano[2,3-c]quinolin]-6-yl]carbamate]	–	–	4.78	0.009
Cc1nc2cc(F)c(F)cc2c2c1O[C@]1(CC2)C[C@H]2C(=O)N[C@]3(C(=O)NS(=O)(=O)C4(C)CC4)C[C@H]3/C=C\CCCCC[C@H](NC(=O)OCC3(C)CC3)C(=O)N2C1 [Example 223, (1-methylcyclopropyl)methyl [(2R,6S,12Z,13aS,14aR,16aS)-8′,9′-difluoro-5′-methyl-14a-{[(1-methylcyclopropyl)sulfonyl]carbamoyl}-5,16-dioxo-1,1′,2′,5,6,7,8,9,10,11,13a,14,14a,15,16,16a-hexadecahydrospiro[cyclopropa[e]pyrrolo[1,2-a][1,4]diazacyclopentadecine-2,3′-pyrano[2,3-c]quinolin]-6-yl]carbamate]	11.1	0.013	–	–
Cc1nc2cc(F)c(F)cc2c2c1O[C@]1(CC2)C[C@H]2C(=O)N[C@]3(C(=O)NS(=O)(=O)C4(C)CC4)C[C@H]3/C=C\CCCCC[C@H](NC(=O)OCC3CC3)C(=O)N2C1 [Example 224, cyclopropylmethyl [(2R,6S,12Z,13aS,14aR,16aS)-8′,9′-difluoro-5′-methyl-14a-{[(1-methylcyclopropyl)sulfonyl]carbamoyl}-5,16-dioxo-1,1′,2′,5,6,7,8,9,10,11,13a,14,14a,15,16,16a-hexadecahydrospiro[cyclopropa[e]pyrrolo[1,2-a][1,4]diazacyclopentadecine-2,3′-pyrano[2,3-c]quinolin]-6-yl]carbamate]	6.73	0.019	–	–
Cc1nc2cc(F)c(F)cc2c2c1O[C@]1(CC2)C[C@H]2C(=O)N[C@]3(C(=O)NS(=O)(=O)C4(C)CC4)C[C@H]3/C=C\CCCCC[C@H](NC(=O)OCC3CCC3)C(=O)N2C1 [Example 225, cyclobutylmethyl [(2R,6S,12Z,13aS,14aR,16aS)-8′,9′-difluoro-5′-methyl-14a-{[(1-methylcyclopropyl)sulfonyl]carbamoyl}-5,16-dioxo-1,1′,2′,5,6,7,8,9,10,11,13a,14,14a,15,16,16a-hexadecahydrospiro[cyclopropa[e]pyrrolo[1,2-a][1,4]diazacyclopentadecine-2,3′-pyrano[2,3-c]quinolin]-6-yl]carbamate]	12.5	0.031	–	–
Cc1nc2ccc(OC(F)(F)F)cc2c2c1O[C@]1(CC2)C[C@H]2C(=O)N[C@]3(C(=O)NS(=O)(=O)C4(C)CC4)C[C@H]3/C=C\CCCCC[C@H](NC(=O)OC(C)(C)CCS(C)(=O)=O)C(=O)N2C1 [Example 226, 2-methyl-4-(methylsulfonyl)butan-2-yl [(2R,6S,12Z,13aS,14aR,16aS)-5′-methyl-14a-{[(1-methylcyclopropyl)sulfonyl]carbamoyl}-5,16-dioxo-9′-(trifluoromethoxy)-1,1′,2′,5,6,7,8,9,10,11,13a,14,14a,15,16,16a-hexadecahydrospiro[cyclopropa[e]pyrrolo[1,2-a][1,4]diazacyclopentadecine-2,3′-pyrano[2,3-c]quinolin]-6-yl]carbamate]	–	–	18	0.021
Cc1nc2ccc(OC(F)(F)F)cc2c2c1O[C@@]1(C[C@H]3C(=O)N[C@]4(C(=O)NS(=O)(=O)C5(C)CC5)C[C@H]4/C=C\CCCCC[C@H](NC(=O)OC4CCCC4)C(=O)N3C1)CC2(F)F [Example 227, cyclopentyl [(2S,6S,12Z,13aS,14aR,16aS)-1′,1′-difluoro-5′-methyl-14a-{[(1-methylcyclopropyl)sulfonyl]carbamoyl}-5,16-dioxo-9′-(trifluoromethoxy)-1,1′,2′,5,6,7,8,9,10,11,13a,14,14a,15,16,16a-hexadecahydrospiro[cyclopropa[e]pyrrolo[1,2-a][1,4]diazacyclopentadecine-2,3′-pyrano[2,3-c]quinolin]-6-yl]carbamate]	–	–	28.4	0.043
Cc1nc2ccccc2c2c1O[C@]1(CC2)C[C@H]2C(=O)N[C@]3(C(=O)NS(=O)(=O)C4(C)CC4)C[C@H]3/C=C\CCCCC[C@H](NC(=O)N(C)C)C(=O)N2C1 [Example 228, (2R,6S,12Z,13aS,14aR,16aS)-6-[(dimethylcarbamoyl)amino]-5′-methyl-N-[(1-methylcyclopropyl)sulfonyl]-5,16-dioxo-1,1′,2′,6,7,8,9,10,11,13a,14,15,16,16a-tetradecahydrospiro[cyclopropa[e]pyrrolo[1,2-a][1,4]diazacyclopentadecine-2,3′-pyrano[2,3-c]quinoline]-14a(5H)-carboxamide]	6.63	0.025	–	–
Cc1nc2ccccc2c2c1O[C@]1(CC2)C[C@H]2C(=O)N[C@]3(C(=O)NS(=O)(=O)C4(C)CC4)C[C@H]3/C=C\CCCCC[C@H](NS(C)(=O)=O)C(=O)N2C1 [Example 229, (2R,6S,12Z,13aS,14aR,16aS)-5′-methyl-N-[(1-methylcyclopropyl)sulfonyl]-6-[(methylsulfonyl)amino]-5,16-dioxo-1,1′,2′,6,7,8,9,10,11,13a,14,15,16,16a-tetradecahydrospiro[cyclopropa[e]pyrrolo[1,2-a][1,4]diazacyclopentadecine-2,3′-pyrano[2,3-c]quinoline]-14a(5H)-carboxamide]	14.6	0.122	–	–
Cc1nc2ccccc2c2c1O[C@]1(CC2)C[C@H]2C(=O)N[C@]3(C(=O)NS(=O)(=O)C4(C)CC4)C[C@H]3/C=C\CCCCC[C@H](NS(=O)(=O)C3CC3)C(=O)N2C1 [Example 230, (2R,6S,12Z,13aS,14aR,16aS)-6-[(cyclopropylsulfonyl)amino]-5′-methyl-N-[(1-methylcyclopropyl)sulfonyl]-5,16-dioxo-1,1′,2′,6,7,8,9,10,11,13a,14,15,16,16a-tetradecahydrospiro[cyclopropa[e]pyrrolo[1,2-a][1,4]diazacyclopentadecine-2,3′-pyrano[2,3-c]quinoline]-14a(5H)-carboxamide]	57.8	0.265	–	–
Cc1nc2ccc(Cl)cc2c2c1O[C@]1(CC2)C[C@H]2C(=O)N[C@]3(C(=O)NS(=O)(=O)C4(C)CC4)C[C@H]3/C=C\CCCCC[C@H](NC(=O)OCC3CCCC3)C(=O)N2C1 [Example 231, cyclopentylmethyl [(2R,6S,12Z,13aS,14aR,16aS)-9′-chloro-5′-methyl-14a-{[(1-methylcyclopropyl)sulfonyl]carbamoyl}-5,16-dioxo-1,1′,2′,5,6,7,8,9,10,11,13a,14,14a,15,16,16a-hexadecahydrospiro[cyclopropa[e]pyrrolo[1,2-a][1,4]diazacyclopentadecine-2,3′-pyrano[2,3-c]quinolin]-6-yl]carbamate]	4.77	0.024	–	–
Cc1nc2cc(F)c(F)cc2c2c1O[C@]1(CC2)C[C@H]2C(=O)N[C@]3(C(=O)NS(=O)(=O)C4(C)CC4)C[C@H]3/C=C\CCCCC[C@H](NC(=O)OCC3CCCC3)C(=O)N2C1 [Example 232, cyclopentylmethyl [(2R,6S,12Z,13aS,14aR,16aS)-8′,9′-difluoro-5′-methyl-14a-{[(1-methylcyclopropyl)sulfonyl]carbamoyl}-5,16-dioxo-1,1′,2′,5,6,7,8,9,10,11,13a,14,14a,15,16,16a-hexadecahydrospiro[cyclopropa[e]pyrrolo[1,2-a][1,4]diazacyclopentadecine-2,3′-pyrano[2,3-c]quinolin]-6-yl]carbamate]	12.9	0.085	–	–
Cc1nc2cc(Cl)ccc2c2c1O[C@]1(CC2)C[C@H]2C(=O)N[C@]3(C(=O)NS(=O)(=O)C4(C)CC4)C[C@H]3/C=C\CCCCC[C@H](NC(=O)OC(C)(C)C)C(=O)N2C1 [Example 233, tert-butyl [(2R,6S,12Z,13aS,14aR,16aS)-8′-chloro-5′-methyl-14a-{[(1-methylcyclopropyl)sulfonyl]carbamoyl}-5,16-dioxo-1,1′,2′,5,6,7,8,9,10,11,13a,14,14a,15,16,16a-hexadecahydrospiro[cyclopropa[e]pyrrolo[1,2-a][1,4]diazacyclopentadecine-2,3′-pyrano[2,3-c]quinolin]-6-yl]carbamate]	1.51	0.051	–	–
